The subject of one data set is platelets. Description: Platelet aggregation with aggregation-inducing agents. To be noted: 12 μg/ml; Lovenox 0.5 U/ml; collagen, ADP, ristocetin, epinephrine, SFFLRN, A23187. The format is cell-based, human. How it is done: Plasma from six volunteers was tested with various aggregation inducing agents, at several concentrations of each agent, and with six different peptides of the invention. The effect of heparin-binding peptides of the invention on platelet aggregation was determined using standard procedures as previously described. The six peptides which were synthesized and tested were: (ARKKAAKA)4 (SEQ ID NO:31), ARKKAAKA(A16)ARKKAAKA (SEQ ID NO:30), (ARKKAAKA)3ARKKCAKA (SEQ ID NO:33), (ARKKAAKA)3VLVLVLVL (SEQ ID NO:5), C(ARKKAAKA)4C (SEQ ID NO:34), and (AKKARA)6 (SEQ ID NO:32).
The aggregation-inducing agents tested were: collagen, adenosine diphosphate (ADP), ristocetin, epinephrine, the thrombin receptor peptide SFFLRN, and calcium ionophore A23187. Platelets were subjected to protamine, or to SEQ ID NOS:31, 33, 30, 5, 34, or 32 at 12 μg/ml, and Lovenox® at 0.5 U/ml. Platelet aggregation in response to agonists was monitored and percent aggregation was determined over a five minute interval.
The agonist was added after equilibration of the platelets for one minute.

A short description of data set [1]: Affinity coelectrophoresis (ACE) of peptide binding to radiolabeled low Mr heparin. More on the design: species or system pig. The conditions noted are these: for Kd: pH 7.0, mean and standard deviation of four assays, read-out: Kd (nM), affinity for low molecular weight heparin. An excerpt: Preparation of Radiolabeled Heparin. Whole heparin from pig intestinal mucosa (Sigma) was tyramine end-labeled and radiolabeled with Na^125I (Amersham, Pharmacia Biotech, Inc., Piscataway, N.J.) to an average specific activity≅1.0×10^7 CPM/μg as described (San Antonio, J. D., et al., Biochemistry, 32:4746-4755, 1993). Radiolabeled heparin was fractionated on Sephadex G-100 (Bio-Rad Laboratories, Hercules, Calif.) and the final≅12% of material to elute was retained as the low Mr material of ≦6,000 (Jordan, R., D. Beeler, and R. Rosenberg, J. Biol. Chem., 254:2902-2913, 1979; Laurent, T. C., et al., Biochem. J., 175:691-701, 1978).
Analysis of Peptide-Heparin Interactions by Affinity Coelectrophoresis (ACE). ACE was used to study interactions between peptides and low molecular weight (low Mr) heparin (WO00/45831). In ACE, trace concentrations of radiolabeled heparin are electrophoresed through agarose lanes containing peptides at various concentrations. These analyses are used to determine the dissociation constants (Kd's). The electrophoretic patterns of radiolabeled heparin are then visualized using a phosphorimager, and the dissociation constant (Kd) corresponds to the protein concentration at which the heparin is half shifted from being fully mobile at very low protein concentrations to maximally retarded at saturating protein concentrations. The lower the Kd value, the higher the affinity.
Binding of radiolabeled heparin to peptides was studied by ACE as detailed elsewhere (San Antonio, J. D., et al., Biochemistry, 32:4746-4755, 1993). […] Briefly, peptides were dissolved in 1×ACE running buffer, 50 mM sodium 3-(N-morpholino)-2-hydroxypropanesulfonate (MOPSO, Sigma)/125 mM sodium acetate, pH 7.0, and serially diluted in running buffer at 2× concentrations. Peptides were then mixed 1:1 with 2% agarose/1% CHAPS, 3-[(3-cholamidopropyl)dimethylammonio]-1-propanesulfonate, (Boehringer Mannheim, Indianapolis, Ind.), and loaded into wells of a 1% agarose gel. Radiolabeled heparin was then loaded in a slot on the anode side of the gel, and electrophoresed through the peptide-containing wells, towards the cathode. Gels were dried and PG mobility was measured with a Phosphorimager (Molecular Dynamics, Sunnyvale, Calif.) by scanning each protein lane and determining the relative radioactivity content per 88-μm pixel through the length of the lane. Retardation coefficient (R) measurements, binding isotherm curve fittings, and apparent Kd value determinations were calculated as detailed previously (Lee, M. K., and A. D. Lander, Proc. Natl. Acad. Sci. USA, 88:2768-2772, 1991; San Antonio, J. D., et al, Biochemistry, 32:4746-4755, 1993).
Retardation coefficients (R) for the migration of low Mr 1^25I-tyramine-heparin through peptides were determined from ACE gel electrophoretograms, and are plotted against peptide concentration. Smooth curves represent non-linear least-squares fits to the equation R=R∞/{1+(Kd/[peptide])^n}.

For data set [2], the system named is unfractionated heparin (thrombin-induced clot formation). The experiment in a line: Thrombin neutralization assay: clotting time of citrated plasma in the presence of unfractionated heparin. The format is biochemical, human. The conditions noted are these: for Time for clot formation: UFH 0.5 IU/ml. How it is done:
It was determined whether heparin-binding peptides of the invention can neutralize unfractionated heparin using the thrombin neutralization assay. The six peptides that were synthesized and used in this Example are: (ARKKAAKA)3VLVLVLVL (SEQ ID NO:5); (ARKKAAKA)(A16)(ARKKAAKA) (SEQ ID NO:30); (ARKKAAKA)4 (SEQ ID NO:31); (AKKARA)6 (SEQ ID NO:32); (ARKKAAKA)3(ARKKCAKA) (SEQ ID NO:33); and cyclized C(ARKKAAKA)4C (SEQ ID NO:34); Citrated plasma was pipetted into a glass tube. Thrombin was added, the tube was manually rotated, and clotting time was determined by observation of clot formation. Normal clotting time is 19-22 seconds.
As a control, to assess the effect of heparin on clot formation, unfractionated heparin was added to the plasma at 0.5 IU anti-thrombin activity/ml and then thrombin was added. Clotting time in the presence of heparin alone was greater than 3 minutes.
To test the effect of peptides, heparin and six peptides at the concentrations indicated in Table 4 were added to the plasma, the mixture was allowed to stand at room temperature for 1 minute, and thrombin was added. The time for the clot to form is indicated. Experiments were performed using plasma from three volunteers—A, B, and C.

The nature of data set [3]: Hemodynamic effects in rats without prior Lovenox. To be noted: no Lovenox.
Procedure: Rats were sedated, and catheters were inserted into the femoral vein and femoral artery. The femoral artery catheter was hooked up to the computerized monitoring system, and injections were made through the femoral vein. Peptides were injected into rats without prior injection of Lovenox. Two or more rats (300-350 grams) were treated with 2 mg protamine or peptide.
At the times indicated in the figures, the following actions were taken: administration of saline to insure that the animal and intubations were stable; administration of test peptide or protamine alone; then administration of protamine.
Data set [4] is described as follows: Hemodynamic effects in rats after administration of the LMWH Lovenox. The conditions noted are these: in the presence of LMWH Lovenox.
Procedure: Next, experiments were performed in which the animals were treated with the peptides after the administration of the LMWH Lovenox®, as would happen in the clinical situation, because binding of peptides to LMWH would be expected to reduce the effects of the peptides on hemodynamic function.
Setting [5] is: 0.35 μg peptide/0.1 ml, plasma A.
The mark [6] stands for this setting: 0.40 μg peptide/0.1 ml, plasma A.
Setting [7] is: 0.40 μg peptide/0.1 ml, plasma B.
[8] abbreviates: 0.40 μg peptide/0.1 ml, plasma C.
The mark [9] stands for this setting: 0.50 μg peptide/0.1 ml, plasma A.
[10] abbreviates: 0.50 μg peptide/0.1 ml, plasma B.
Setting [11] is: 0.50 μg peptide/0.1 ml, plasma C.

“Also recorded” adds a separate entry of the source. Bridge positions count the residues as written; N and C are the ends. Ends that are not written are not given here. Peptide text beside a SMILES is read from it.

Data on six molecules can be found in patent US7259140B2, “Heparin-binding peptides and uses thereof” (Thomas Jefferson University, priority 2003, dated 2007).

For the molecule `C[C@@H]1NC(=O)[C@H](C)NC(=O)[C@H](CCCCN)NC(=O)[C@H](CCCCN)NC(=O)[C@H](CCCNC(=N)N)NC(=O)[C@H](C)NC(=O)[C@H](C)NC(=O)[C@H](CCCCN)NC(=O)[C@H](C)NC(=O)[C@H](C)NC(=O)[C@H](CCCCN)NC(=O)[C@H](CCCCN)NC(=O)[C@H](CCCNC(=N)N)NC(=O)[C@H](C)NC(=O)[C@@H](N)CSSC[C@@H](C(=O)O)NC(=O)[C@H](C)NC(=O)[C@H](CCCCN)NC(=O)[C@H](C)NC(=O)[C@H](C)NC(=O)[C@H](CCCCN)NC(=O)[C@H](CCCCN)NC(=O)[C@H](CCCNC(=N)N)NC(=O)[C@H](C)NC(=O)[C@H](C)NC(=O)[C@H](CCCCN)NC(=O)[C@H](C)NC(=O)[C@H](C)NC(=O)[C@H](CCCCN)NC(=O)[C@H](CCCCN)NC(=O)[C@H](CCCNC(=N)N)NC(=O)[C@H](C)NC(=O)[C@H](C)NC(=O)[C@H](CCCCN)NC1=O` [C(ARKKAAKA)4C, cyclized C(ARKKAAKA)4C] (H-CARKKAAKAARKKAAKAARKKAAKAARKKAAKAC-OH; disulfide 1-34), the “effect on platelet aggregation” value in the data set on platelets is listed as “no significant inhibition or enhancement of aggregation”. In data set [1], the Kd is 38 ± 13 nM. In addition, the “effectiveness in thrombin neutralization assay” value in data set [2] was “effective”. For the same molecule, the “Time for clot formation” value in data set [2] (setting [5]) is 37.67 ± 5.25 s; in data set [2] (setting [6]) it was 29.00 ± 0.82 s; in data set [2] (setting [7]), 47.67 ± 8.34 s; in data set [2] (setting [8]), 56.33 ± 1.70 s; in data set [2] (setting [9]), 23.67 ± 2.05 s; in data set [2] (setting [10]) it was 34.33 ± 1.25 s. Also, the “Time for clot formation” value in data set [2] (setting [11]) turned out to be 43.00 ± 2.45 s. Also, the “effect on blood pressure” value in data set [3] (2 mg per rat) is given as “did not cause a change in blood pressure”. The “effect on blood pressure and heart rate / toxicity” value in data set [4] was “no, or minimal, adverse effects on blood pressure or heart rate; also recorded: not toxic”; in data set [4] (listed as C(ARKKAAKA)4C-cyclized), “All rats tested showed no response”.

As for “ARKKAAKAAAAAAAAAAAAAAAAAARKKAAKA [ARKKAAKA(A16)ARKKAAKA, reference compound]”, the “effect on platelet aggregation” value in the data set with platelets is “no significant inhibition or enhancement of aggregation”. Moreover, in data set [1], the Kd stood at 8327 ± 60 nM. For the same molecule, the “effectiveness in thrombin neutralization assay” value in data set [2] is “ineffective”. The “Time for clot formation” value in data set [2] (6.0 μg peptide/0.1 ml, plasma B) is 55.00 ± 4.08 s; in data set [2] (6.5 μg peptide/0.1 ml, plasma A), 76.33 ± 4.19 s; in data set [2] (6.5 μg peptide/0.1 ml, plasma C) it was 48.67 ± 7.72 s; in data set [2] (7.0 μg peptide/0.1 ml, plasma A) it was 61.00 ± 2.94 s; in data set [2] (7.0 μg peptide/0.1 ml, plasma B), 85.67 ± 3.30 s; in data set [2] (7.0 μg peptide/0.1 ml, plasma C), 47.67 ± 3.77 s. The “Time for clot formation” value in data set [2] (7.5 μg peptide/0.1 ml, plasma A) was found to be 58.67 ± 1.89 s; in data set [2] (7.5 μg peptide/0.1 ml, plasma C) it was 180.0 ± 0.00 s. Besides, in data set [3] (2 mg per rat), the “effect on blood pressure” value is reported as “did not affect blood pressure”.

For the molecule “ARKKAAKAARKKAAKAARKKAAKAARKKAAKA [(ARKKAAKA)4]”, the “effect on platelet aggregation” value in the data set on platelets is listed as “no significant inhibition or enhancement of aggregation”. Moreover, the “affinity for low molecular weight heparin” value in data set [1] is recorded as “high heparin affinity”. Further, the Kd in data set [1] stood at 55 ± 32 nM. Moreover, the “Time for clot formation” value in data set [2] (0.30 μg peptide/0.1 ml, plasma A) was 56.33 ± 4.92 s; in data set [2] (0.30 μg peptide/0.1 ml, plasma B), 53.33 ± 1.25 s; in data set [2] (setting [5]) it was 22.33 ± 0.47 s; in data set [2] (0.35 μg peptide/0.1 ml, plasma B), 39.00 ± 5.35 s; in data set [2] (0.35 μg peptide/0.1 ml, plasma C) it was 32.67 ± 0.47 s; in data set [2] (setting [6]), 18.67 ± 0.94 s. For the same molecule, the “Time for clot formation” value is 26.30 ± 1.25 s in data set [2] (setting [7]); 22.67 ± 1.25 s in data set [2] (setting [8]); 19.67 ± 1.25 s in data set [2] (setting [9]); 24.00 ± 0.82 s in data set [2] (setting [10]); 20.67 ± 0.94 s in data set [2] (setting [11]). For the same molecule, the “time to nadir of blood pressure” value in data set [3] (2 mg per rat) turned out to be 2 min. The “effect on blood pressure and heart rate / toxicity” value in data set [4] is “no significant effect on blood pressure and heart rate; also recorded: All four rats tested showed no response”.

For the molecule “ARKKAAKAARKKAAKAARKKAAKAVLVLVL [(ARKKAAKA)3VLVLVL]”, the Kd in data set [1] is 44 ± 17 nM.

For the molecule Protamine [reference compound], the “reduction/drop of blood pressure” value in data set [3] (2 mg per rat (300-350 grams)) was 25-35 mm Hg. For the same molecule, in data set [3] (2 mg per rat), the “onset of blood pressure reduction” value is on record as “within less than a minute”, the “time to nadir of blood pressure” value was “about 4.5 minutes” and the “time to recovery/reversal of blood pressure” value fell in the range of 10 to 12 min. In data set [4], the blood pressure drop is reported as at least 30 mm Hg, the “duration of blood pressure drop” value came to 10 min, the heart rate nadir result is reported as “about 80 % of normal” and the “rats with blood pressure drop out of rats tested” value is on record as 10 out of 15.

Regarding “VLVL(ARKKAAKA)3ARKKCAKA (VLVLARKKAAKAARKKAAKAARKKAAKAARKKCAKA; Fragment)”, the Kd in data set [1] came to 48 ± 11 nM.

As usually defined, the Kd is the free concentration of one partner at which half of the binding sites on the other are occupied at equilibrium, for simple one-to-one binding.
